Entries after “also recorded” stand apart in the source; their conditions may differ. Like-named read-outs stand apart in the source and are kept apart here. Residues, ends and D or L forms follow the SMILES beside them. *: point of attachment. Cbz = O=C(OCc1ccccc1)*; CH2F = FC*

In test [1] the target is T1, calpain-2 (Homo sapiens, UniProt P17655).
T1 sequence (P17655 1-700): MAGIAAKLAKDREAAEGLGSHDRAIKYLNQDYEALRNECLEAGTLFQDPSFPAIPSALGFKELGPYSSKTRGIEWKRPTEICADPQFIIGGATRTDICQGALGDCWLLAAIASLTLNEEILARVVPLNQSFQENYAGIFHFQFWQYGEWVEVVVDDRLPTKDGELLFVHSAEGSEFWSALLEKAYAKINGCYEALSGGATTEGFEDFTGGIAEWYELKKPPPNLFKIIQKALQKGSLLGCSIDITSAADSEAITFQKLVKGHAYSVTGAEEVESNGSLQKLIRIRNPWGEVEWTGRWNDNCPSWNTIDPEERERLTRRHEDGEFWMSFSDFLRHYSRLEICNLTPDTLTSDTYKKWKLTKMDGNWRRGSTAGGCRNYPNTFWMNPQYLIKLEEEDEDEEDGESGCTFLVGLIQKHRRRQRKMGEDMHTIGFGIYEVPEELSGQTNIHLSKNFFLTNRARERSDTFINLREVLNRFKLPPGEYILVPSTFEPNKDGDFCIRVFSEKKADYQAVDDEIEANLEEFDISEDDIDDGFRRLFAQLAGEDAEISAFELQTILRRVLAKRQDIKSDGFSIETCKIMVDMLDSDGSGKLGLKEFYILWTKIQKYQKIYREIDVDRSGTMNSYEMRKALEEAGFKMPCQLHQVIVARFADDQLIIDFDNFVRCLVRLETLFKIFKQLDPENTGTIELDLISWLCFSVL
T1 sequence (P04632 1-268 partner): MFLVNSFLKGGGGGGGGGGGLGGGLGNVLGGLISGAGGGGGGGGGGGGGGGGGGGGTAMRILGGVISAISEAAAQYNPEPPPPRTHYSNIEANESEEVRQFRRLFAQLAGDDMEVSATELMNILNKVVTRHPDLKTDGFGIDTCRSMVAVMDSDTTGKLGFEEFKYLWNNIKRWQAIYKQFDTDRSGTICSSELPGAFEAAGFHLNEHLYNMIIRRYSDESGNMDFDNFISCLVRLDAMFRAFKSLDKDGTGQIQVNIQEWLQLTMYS
The conditions noted are these: cited from earlier work.

Another test relates to Akt and ERK. In words: Akt and ERK phosphorylation in cultured cortical neurons, immunoblot. Format: cell-based. The settings on record: for Akt and ERK phosphorylation (pAkt/Akt, pERK/ERK): peptide 1.5 μM, 30 min. From the text: Pre-treatment with Calpain-2 C-terminal peptide had no effect on Akt and ERK levels. Columns represent means±S.E.M. n=3-6. *p<0.05. One-way ANOVA followed by Bonferroni test.
(In general: In western blotting, separated proteins are transferred to a membrane and probed.)

The test system of test [2] is cultured cortical neurons. In words: Bic- and 4-AP-induced neuroprotection against starvation, Hoechst staining. Format: cell-based. The settings on record: mCalp-I 200 nM. The source says:
Neuronal death was observed and quantified by Hoechst staining. 300-500 neurons were counted for each group in three to 6 independent experiments. *p<0.05; ns, no significant difference; one-way ANOVA followed by Bonferroni test. n=3-6. Error Bar indicates SEM
Neuronal death was observed and quantified by Hoechst staining. 300-500 neurons were counted for each group in three to 6 independent experiments. *p<0.05; ns, no significant difference; one-way ANOVA followed by Bonferroni test. n=3-6. Error Bar indicates SEM (FIG. 6).

Test [3] relates to stratum radiatum of field CA1 in acute rat hippocampal slices. In words: field EPSP recording, TBS-induced LTP in acute rat hippocampal slices. Format: cell-based. How it is done:
Results are expressed as percent of the average values over a 10 min baseline period and are means±S.E.M. of the indicated number of experiments.
FIG. 3A: Field recording of excitatory postsynaptic potentials (EPSPs) performed in stratum radiatum of field CA1 in acute rat hippocampal slices in the presence or absence of 200 nM of the calpain-2 selective inhibitor, Formula I, (mCalp-I in the drawing). Preincubation with mCalp-I enhances LTP. Results are expressed as percent of the average values over a 10 min baseline period and are means±S.E.M. of the indicated number of experiments.
Results are expressed as percent of the average values over the 10 min baseline period and are means±S.E.M. of the indicated number of experiments.
Generic calpain inhibitors block LTP when administered before LTP induction. Field recording of excitatory postsynaptic potentials (EPSPs; FIG. 2) was performed in stratum radiatum of field CA1 in acute rat hippocampal slices.
A calpain 2-selective inhibitor enhances LTP. […]

Test [4] concerns the target T2, calpain-1 (Homo sapiens, UniProt P07384).
T2 sequence (P07384 1-714): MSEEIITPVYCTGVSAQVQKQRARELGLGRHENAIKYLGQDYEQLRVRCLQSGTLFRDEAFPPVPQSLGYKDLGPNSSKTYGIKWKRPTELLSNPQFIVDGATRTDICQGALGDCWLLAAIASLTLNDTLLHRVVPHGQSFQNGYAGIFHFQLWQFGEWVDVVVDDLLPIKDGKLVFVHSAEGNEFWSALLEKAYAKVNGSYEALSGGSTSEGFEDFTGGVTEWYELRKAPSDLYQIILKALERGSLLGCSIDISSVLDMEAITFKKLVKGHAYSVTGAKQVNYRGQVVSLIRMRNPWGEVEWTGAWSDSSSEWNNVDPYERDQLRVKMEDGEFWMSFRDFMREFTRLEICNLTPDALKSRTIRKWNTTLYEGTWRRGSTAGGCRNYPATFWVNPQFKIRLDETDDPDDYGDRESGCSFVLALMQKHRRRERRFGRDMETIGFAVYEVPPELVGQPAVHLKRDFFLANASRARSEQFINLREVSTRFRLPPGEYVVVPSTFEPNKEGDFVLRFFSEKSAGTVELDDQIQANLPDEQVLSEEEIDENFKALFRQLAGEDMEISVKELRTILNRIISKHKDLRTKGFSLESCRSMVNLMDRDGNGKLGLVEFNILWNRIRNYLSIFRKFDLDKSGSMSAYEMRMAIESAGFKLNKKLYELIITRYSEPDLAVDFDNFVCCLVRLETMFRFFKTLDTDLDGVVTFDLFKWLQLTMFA
T2 sequence (P04632 1-268 partner): T1 sequence (P04632 1-268 partner)
The conditions noted are these: cited from earlier work.

In test [5] the target is T1, calpain-2. In words: in vitro calpain-2 inhibition, succinic-Leu-Tyr-AMC substrate. The conditions noted are these: for Ki: Example 13, read-out: Ki Calpain-2; for Ki / IC50: n = 3-4. The format is biochemical. How it is done:
(§1) Formula 1, where chiral center 1 is the L-form and chiral center 2 is a racemic mixture of D- and L- in this example was introduced at various concentrations (from 1 nM to 10 μM) into an in vitro mix comprising succinic-Leu-Tyr-AMC and calpain-1 or calpain-2 (Sasaki et al, 1984), and the kinetics of the loss of fluorescence were determined for each of the calpains (Powers et al, 2000). […] Therefore, the assessment of selectivity described herein was different than the prior teaching.
(§2) Formula 1A, where chiral center 1 is the S-form and chiral center 2 is the S-form was separated from the S-R-form (Formula 1B) using methods that are well-known methods for separating diastereoisomers. Formula 1A, which is also referred to herein as compound 18A, in this example was introduced at various concentrations into an in vitro mix comprising succinic-Leu-Tyr-AMC and μ-calpain or m-calpain (Sasaki et al, 1984), and the kinetics of the loss of fluorescence were determined for each of the calpains.

In test [6] the target is T2, calpain-1. As to the kind of experiment: in vitro calpain-1 inhibition, succinic-Leu-Tyr-AMC substrate. Format: biochemical. The settings on record: n = 3-5; for Ki: Example 13, read-out: Ki Calpain-1. How it is done: as §1, §2
Test [7] relates to cultured cortical neurons. In words: neuroprotection against starvation and oxidative stress (H2O2). Format: cell-based. The conditions noted are these: 1.5 μM. The source says: Columns represent means±S.E.M. n=4. *p<0.05; **p<0.01; ***p<0.001. One-way ANOVA followed by Bonferroni test.

Consider `CC(C)C(NC(=O)OCc1ccccc1)C(=O)NC(C=O)Cc1ccccc1` (stereo not drawn) [Calpain inhibitor III, Z-Val-Phe-CHO, reference compound] (Cbz-Val-Phe-aldehyde; configuration not given here), for which the Ki (in general, the dissociation constant of the complex between target and ligand, obtained from inhibition or displacement) at calpain-2 [1] (stated for generic inhibitor, source not given, read-out: Ki for calpain-2) is roughly 8 nM. In the test on Akt and ERK (pre-treatment 10 μM), the “effect of calpain-1 peptide on Akt and ERK” value was “blocks the effect of calpain-1 peptide on Akt and ERK”. In addition, in test [2], the “blocked Bic- and 4-AP-induced neuroprotection against starvation” value is “blocked”. Besides, in test [3] (10 μM added prior to TBS), the “LTP after theta-burst stimulation” value is “blocks LTP; also recorded: prevented the formation of LTP” and the “short-term potentiation (increase in fEPSPs that follows TBS)” value is on record as “did not block short-term potentiation”.
Take `CC(C)C[C@H](NC(=O)OCc1ccccc1)C(=O)N[C@@H](CC(C)C)C(=O)N[C@@H](Cc1ccc(O)cc1)C(=O)CF` [Calpain inhibitor IV, carboxybenzyl-Leu-Leu-Tyr-CH2-F] (Cbz-Leu-Leu-Tyr-CH2F): the selectivity among calpains entry at calpain-1 [4] (Powers et al, 2002, effect appears to vary with cell-type) was “some selectivity for calpain-1”.
As for `CC[C@H](NC(=O)[C@H](CC(C)C)NC(=O)OCc1ccccc1)C(=O)C(=O)NCc1cc(OC)cc(OC)c1` [Formula 1A], on calpain-2 [5], the “Ratio KiCalpain-1/KiCalpain-2” value is given as 23.2; the Ki stood at 7.8 ± 2.5 nM; the midpoint of inhibition, the IC50, lay at 193 nM. For the same molecule, the “difference in activity between the two diasteriomers, inhibition of calpain-2” value at calpain-2 [5] (Formula 1A versus S-R-form) amounted to 2000 fold. On calpain-1 [6], the Ki is 181 ± 73 nM and inhibition was half-maximal at 379 nM (IC50).
Turning to `CC[C@@H](NC(=O)[C@H](CC(C)C)NC(=O)OCc1ccccc1)C(=O)C(=O)NCc1cc(OC)cc(OC)c1` [Formula 1B], at calpain-2 [5], the “Ratio KiCalpain-1/KiCalpain-2” value came out at 34, the Ki came to 15600 ± 9200 nM and inhibition was half-maximal at 19400 nM (IC50). Besides, on calpain-1 [6], the Ki was found to be 514000 ± 151000 nM and the IC50 (usually the concentration that gives 50% inhibition) was determined as 569000 nM.
For the molecule `CCCNC(=O)C(=O)C(Cc1ccccc1)NC(=O)C(CC(C)C)NC(=O)OCc1ccccc1` (stereo not drawn) [Formula XII, z-Leu-Phe-CONH-nPr], the Ki at calpain-1 [4] (Li et al, 1996, read-out: Ki for calpain-1 (μ-calpain), literature) is 50 nM; at calpain-1 [4] (U.S. Pat. No. 6,235,929, column 14, Table I, read-out: Ki for calpain-1) it was 15000 nM; on calpain-2 [1] (Li et al, 1996, read-out: Ki for calpain-2 (m-calpain), literature), 350 nM.
Take “Calpain-1 C-terminal peptide: calpain-1 PDZ-binding domain specific peptide: VTFDLFKWLQLTMFA, or fragment or modification thereof”: the “Akt and ERK phosphorylation (pAkt/Akt, pERK/ERK)” value in the test on Akt and ERK was “increased Akt and ERK phosphorylation”. For the same molecule, in test [7], the “neuroprotection against H2O2 insult” value is “neuroprotection against H2O2 insult” and the neuroprotection against starvation entry was “neuroprotection against starvation”. Besides, the “LTP in rat hippocampal slices on un-scaffolding calpain-1” value in test [3] (calpain-1 PDZ-peptide) is reported as “greater LTP”.
For “Calpain-2 C-terminal peptide: calpain-2 PDZ-binding domain specific peptide: TIQLDLISWLSFSVL, or fragment or modification thereof”, in the test with Akt and ERK, the “Akt and ERK phosphorylation (pAkt/Akt, pERK/ERK)” value is “no effect”.

Source of the values: US20190030114A1, “ISOFORM-SPECIFIC CALPAIN INHIBITORS, METHODS OF IDENTIFICATION, AND USES THEREOF” (WESTERN UNIVERSITY OF HEALTH SCIENCES, priority 2014, published 2019).
